IC50 data for 35 molecules are collected here from patent US11479551B2, “MTA-cooperative PRMT5 inhibitors” (Mirati Therapeutics, Inc., priority 2019, dated 2022).

Experiment [1] deals with T1, PRMT5/MEP50 complex (Homo sapiens (Human), UniProt O14744). Briefly: PRMT5:MEP50 HotSpot Assay (full-length histone H2A substrate, plus and minus MTA). The experiment is classed as biochemical. As for the experimental part: (§1) The PRMT5 inhibitory activity of compounds of the present invention was determined using either a PRMT5:MEP50 FlashPlate Assay (Reaction Biology Corporation) or a PRMT5:MEP50 HotSpot Assay (Reaction Biology Corporation).
The assay uses recombinant full-length histone H2A as the PRMT5 substrate. […] The reaction was stopped and transferred to filter paper for detection. The amount of tritiated H2A in each sample was determined using a scintillation counter.

Experiment [2] deals with T1, PRMT5/MEP50 complex. Briefly: PRMT5:MEP50 FlashPlate Assay (histone H4 peptide substrate, plus and minus MTA). Format: biochemical. The method, then: as §1
1. PRMT5:MEP50 FlashPlate Assay

[3] abbreviates: IC50 + 2 μM MTA, in the presence of 2 μM MTA.
Setting [4] is: in the absence of MTA, read-out: IC50.
Setting [5] is: IC50 + 2 μM MTA (nM), in the presence of 2 μM MTA.

Several values for one entry are separate records, joined by “and”; a condition that tells them apart may be missing. Identical values can stand only once.

T1 sequence (O14744 2-637): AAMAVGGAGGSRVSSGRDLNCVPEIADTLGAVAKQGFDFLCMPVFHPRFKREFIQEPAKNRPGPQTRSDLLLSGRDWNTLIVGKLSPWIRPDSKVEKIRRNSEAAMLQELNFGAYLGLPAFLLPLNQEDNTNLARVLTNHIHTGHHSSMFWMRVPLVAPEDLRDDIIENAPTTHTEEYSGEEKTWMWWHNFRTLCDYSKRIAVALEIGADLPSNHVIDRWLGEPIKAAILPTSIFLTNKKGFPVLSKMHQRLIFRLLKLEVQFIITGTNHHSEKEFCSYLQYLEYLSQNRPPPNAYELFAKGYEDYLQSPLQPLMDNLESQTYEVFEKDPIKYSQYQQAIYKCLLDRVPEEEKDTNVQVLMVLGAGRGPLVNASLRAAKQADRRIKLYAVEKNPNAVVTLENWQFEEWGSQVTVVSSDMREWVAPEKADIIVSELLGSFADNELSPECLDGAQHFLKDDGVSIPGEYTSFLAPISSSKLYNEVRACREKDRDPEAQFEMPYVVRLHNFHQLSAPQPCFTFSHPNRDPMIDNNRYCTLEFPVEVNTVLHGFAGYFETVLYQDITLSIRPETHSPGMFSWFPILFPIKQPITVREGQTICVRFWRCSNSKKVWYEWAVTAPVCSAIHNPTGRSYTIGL
T1 sequence (Q9BQA1 2-342 partner): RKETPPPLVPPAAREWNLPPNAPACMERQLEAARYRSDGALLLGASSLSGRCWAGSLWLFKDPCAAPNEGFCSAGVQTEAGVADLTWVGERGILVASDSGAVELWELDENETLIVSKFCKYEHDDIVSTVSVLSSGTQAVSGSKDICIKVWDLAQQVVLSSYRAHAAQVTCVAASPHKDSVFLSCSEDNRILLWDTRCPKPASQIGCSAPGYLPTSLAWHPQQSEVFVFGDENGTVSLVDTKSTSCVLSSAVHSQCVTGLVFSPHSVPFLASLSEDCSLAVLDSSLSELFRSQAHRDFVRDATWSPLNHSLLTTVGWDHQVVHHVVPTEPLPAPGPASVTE

By IC50 is commonly meant the midpoint of a concentration-inhibition curve. As for `Cn1ncc(-c2ccc3c(=O)[nH]nc(CN)c3c2)c1-c1cccc(Cl)c1C#N` [Example 4-119, 2-(4-(4-(aminomethyl)-1-oxo-1,2-dihydrophthalazin-6-yl)-1-methyl-1H-pyrazol-5-yl)-6-chlorobenzonitrile], the IC50 on PRMT5/MEP50 complex [1] (setting [3]) was 0.441 µM; on PRMT5/MEP50 complex [1] (setting [4]) it was 5.26 µM.
For `Cn1ncc(-c2ccc3c(=O)[nH]nc(CN)c3c2)c1-c1cccc[n+]1[O-]` [Example 4-120, 2-(4-(4-(aminomethyl)-1-oxo-1,2-dihydrophthalazin-6-yl)-1-methyl-1H-pyrazol-5-yl)pyridine 1-oxide], the IC50 on PRMT5/MEP50 complex [1] (setting [3]) is > 10 µM.
Still for that read-out and setting: the same measure for `Cn1ncc(-c2ccc3c(=O)[nH]nc(CN)c3c2)c1-c1c(F)cccc1C#N` [Example 4-152, 2-(4-(4-(aminomethyl)-1-oxo-1,2-dihydrophthalazin-6-yl)-1-methyl-1H-pyrazol-5-yl)-3-fluorobenzonitrile]: 0.978 µM and 1.91 µM.
In the case of `COc1ccc(-c2c(-c3ccc4c(=O)[nH]nc(CN)c4c3)cnn2C)c(C#N)c1C` [Example 4-179, 6-(4-(4-(aminomethyl)-1-oxo-1,2-dihydrophthalazin-6-yl)-1-methyl-1H-pyrazol-5-yl)-3-methoxy-2-methylbenzonitrile], the IC50 at PRMT5/MEP50 complex [1] (setting [3]) amounted to 1.24 µM.
Turning to `CC(C)Oc1ccn2ncc(-c3ccc4c(=O)[nH]nc(CN)c4c3)c2c1` [Example 4-113, 4-(aminomethyl)-6-(5-isopropoxypyrazolo[1,5-a]pyridin-3-yl)phthalazin-1(2H)-one], the IC50 at PRMT5/MEP50 complex [1] (setting [3]) was 0.561 µM.
On to `CC(C)Oc1cccc(-c2c(-c3ccc4c(=O)[nH]nc(CN)c4c3)cnn2C)c1C#N` [Example 4-176, 2-(4-(4-(aminomethyl)-1-oxo-1,2-dihydrophthalazin-6-yl)-1-methyl-1H-pyrazol-5-yl)-6-isopropoxybenzonitrile], for which, at PRMT5/MEP50 complex [1] (setting [3]), the IC50 turned out to be 8.71 µM.
Still for that read-out and setting: the same measure for `Cn1ncc(-c2ccc3c(=O)[nH]nc(CN)c3c2)c1OCc1cccc(Cl)c1` [Example 4-155, 4-(aminomethyl)-6-(5-((3-chlorobenzyl)oxy)-1-methyl-1H-pyrazol-4-yl)phthalazin-1(2H)-one]: 3.46 µM; for `Cn1ncc(-c2ccc3c(=O)[nH]nc(CN)c3c2)c1-c1cc2ncccc2cc1C#N` [Example 4-167, 7-(4-(4-(aminomethyl)-1-oxo-1,2-dihydrophthalazin-6-yl)-1-methyl-1H-pyrazol-5-yl)quinoline-6-carbonitrile]: 6.62 µM; for `Cn1ncc(-c2ccc3c(=O)[nH]nc(CN)c3c2)c1-c1cc(Cl)cc(Cl)c1C#N` [Example 4-165, 2-(4-(4-(aminomethyl)-1-oxo-1,2-dihydrophthalazin-6-yl)-1-methyl-1H-pyrazol-5-yl)-4,6-dichlorobenzonitrile]: 2.41 µM.
The same measure, in the same setting: then `NCc1n[nH]c(=O)c2ccc(-c3cncc(C4CCCCC4)c3)cc12` [Example 14-1, 4-(aminomethyl)-6-(5-cyclohexyl-3-pyridyl)-2H-phthalazin-1-one], with > 10 µM.
`Cn1ncc(-c2ccc3c(=O)[nH]nc(CN)c3c2)c1OCc1ccc(Cl)cc1` [Example 4-156, 4-(aminomethyl)-6-(5-((4-chlorobenzyl)oxy)-1-methyl-1H-pyrazol-4-yl)phthalazin-1(2H)-one]: the 50% inhibitory concentration (IC50) on PRMT5/MEP50 complex [1] (setting [3]) was determined as 9.13 µM.
On the same count and under the same terms, the same measure for `Cn1ncc(-c2ccc3c(=O)[nH]nc(CN)c3c2)c1-c1ccc(OC2CC2)cc1` [Example 4-136, 4-(aminomethyl)-6-(5-(4-cyclopropoxyphenyl)-1-methyl-1H-pyrazol-4-yl)phthalazin-1(2H)-one]: 0.872 µM.
For the molecule `Cn1ncc(-c2ccc3c(=O)[nH]nc(CN)c3c2)c1-c1ccc(OC2CCC2)cc1` [Example 4-138, 4-(aminomethyl)-6-(5-(4-cyclobutoxyphenyl)-1-methyl-1H-pyrazol-4-yl)phthalazin-1(2H)-one], the IC50 on PRMT5/MEP50 complex [1] (setting [3]) is 0.354 µM.
The same measure, in the same setting: the same measure for `Cn1ncc(-c2ccc3c(=O)[nH]nc(CN)c3c2)c1CCc1ccccc1` [Example 4-117, 4-(aminomethyl)-6-(1-methyl-5-phenethyl-1H-pyrazol-4-yl)phthalazin-1(2H)-one]: 0.536 µM; for `NCc1n[nH]c(=O)c2ccc(-c3cncc(Oc4cccc5cccnc45)c3)cc12` [Example 4-121, 4-(aminomethyl)-6-(5-(quinolin-8-yloxy)pyridin-3-yl)phthalazin-1(2H)-one]: 0.177 µM; for `CCOc1ccc(-c2c(-c3ccc4c(=O)[nH]nc(CN)c4c3)cnn2C)c(C#N)c1` [Example 4-173, 2-(4-(4-(aminomethyl)-1-oxo-1,2-dihydrophthalazin-6-yl)-1-methyl-1H-pyrazol-5-yl)-5-ethoxybenzonitrile]: 1.6 µM.
Same read-out and setting: then `Cn1ncc(-c2ccc3c(=O)[nH]nc(CN)c3c2)c1-c1ccccc1Cl` [Example 4-143, 4-(aminomethyl)-6-(5-(2-chlorophenyl)-1-methyl-1H-pyrazol-4-yl)phthalazin-1(2H)-one], with 1.17 µM; and `CN(C)c1c(-c2ccc3c(=O)[nH]nc(CN)c3c2)cnn1C` [Example 4-171, 4-(aminomethyl)-6-(5-(dimethylamino)-1-methyl-1H-pyrazol-4-yl)phthalazin-1(2H)-one], with 4.44 µM; and `Cn1ncc(-c2ccc3c(=O)[nH]nc(CN)c3c2)c1OCc1ccccc1Cl` [Example 4-154, 4-(aminomethyl)-6-(5-((2-chlorobenzyl)oxy)-1-methyl-1H-pyrazol-4-yl)phthalazin-1(2H)-one], with 3.28 µM.
On the same count and under the same terms, then `NCc1n[nH]c(=O)c2ccc(-c3cnn4ccc(Oc5ccccc5)cc34)cc12` [Example 4-114, 4-(aminomethyl)-6-(5-phenoxypyrazolo[1,5-a]pyridin-3-yl)phthalazin-1(2H)-one], with 0.486 µM; and `COc1cc(Cl)cc(-c2c(-c3ccc4c(=O)[nH]nc(CN)c4c3)cnn2C)c1C#N` [Example 4-168, 2-(4-(4-(aminomethyl)-1-oxo-1,2-dihydrophthalazin-6-yl)-1-methyl-1H-pyrazol-5-yl)-4-chloro-6-methoxybenzonitrile], with 1.37 µM.
As for `Cn1ncc(-c2ccc3c(=O)[nH]nc(CN)c3c2)c1-c1ccc(C2CC2)cc1C#N` [Example 4-126, 2-(4-(4-(aminomethyl)-1-oxo-1,2-dihydrophthalazin-6-yl)-1-methyl-1H-pyrazol-5-yl)-5-cyclopropylbenzonitrile], the IC50 on PRMT5/MEP50 complex [1] (setting [3]) amounted to 0.361 µM.
Still for that read-out and setting: then `Cn1ncc(-c2ccc3c(=O)[nH]nc(CN)c3c2)c1OCC1CC1` [Example 4-116, 4-(aminomethyl)-6-(5-(cyclopropylmethoxy)-1-methyl-1H-pyrazol-4-yl)phthalazin-1(2H)-one], with 1.08 µM; and `N#Cc1ccccc1-c1c(-c2ccc3c(=O)[nH]nc(CN)c3c2)cnn1CCO` [Example 4-193, 2-(4-(4-(aminomethyl)-1-oxo-1,2-dihydrophthalazin-6-yl)-1-(2-hydroxyethyl)-1H-pyrazol-5-yl)benzonitrile], with > 10 µM; and `COc1ccc(-c2c(-c3ccc4c(=O)[nH]nc(CN)c4c3)cnn2C)c(C#N)c1Cl` [Example 4-170, 6-(4-(4-(aminomethyl)-1-oxo-1,2-dihydrophthalazin-6-yl)-1-methyl-1H-pyrazol-5-yl)-2-chloro-3-methoxybenzonitrile], with 0.728 µM.
Take `Cc1nn(C)cc1-c1ccc2c(=O)[nH]nc(CN)c2c1` [Example 3-22, 4-(aminomethyl)-6-(1,3-dimethyl-1H-pyrazol-4-yl)phthalazin-1(2H)-one]: the IC50 was 35000 nM on PRMT5/MEP50 complex [2] (setting [5]) and > 100000 nM on PRMT5/MEP50 complex [2] (setting [4]).
Turning to `CCc1ccc(-c2ccc3c(=O)[nH]nc(CN)c3c2)cn1` [Example 3-3, 4-(aminomethyl)-6-(6-ethylpyridin-3-yl)phthalazin-1(2H)-one], the IC50 at PRMT5/MEP50 complex [2] (setting [5]) is 25000 nM; on PRMT5/MEP50 complex [2] (setting [4]), 10000 nM.
For `NCc1n[nH]c(=O)c2ccc(-c3cnc4[nH]cc(F)c4c3)cc12` [Example 4-42, 4-(aminomethyl)-6-(3-fluoro-1H-pyrrolo[2,3-b]pyridin-5-yl)phthalazin-1(2H)-one], in that order: 45 nM and 1380 nM.
Turning to `NCc1n[nH]c(=O)c2ccc(-c3cnc4ccc(OC(F)(F)F)cn34)cc12` [Example 4-38, 4-(aminomethyl)-6-(6-(trifluoromethoxy)imidazo[1,2-a]pyridin-3-yl)phthalazin-1(2H)-one], the IC50 at PRMT5/MEP50 complex [2] (setting [5]) came out at 25 nM; at PRMT5/MEP50 complex [2] (setting [4]), 850 nM.
The like results for `NCc1n[nH]c(=O)c2ccc(-c3cnc(C(F)(F)F)nc3)cc12` [Example 3-12, 4-(aminomethyl)-6-(2-(trifluoromethyl)pyrimidin-5-yl)phthalazin-1(2H)-one] were, in that order, 210000 nM and > 1e+06 nM.
The like results for `CC(C)Oc1cncc(-c2ccc3c(=O)[nH]nc(CN)c3c2)c1` [Example 3-52, 4-(aminomethyl)-6-(5-isopropoxypyridin-3-yl)phthalazin-1(2H)-one] were, in that order, 370 nM and 3000 nM.
On to `NCc1n[nH]c(=O)c2ccc(-c3ccnnc3)cc12` [Example 3-2, 4-(aminomethyl)-6-(pyridazin-4-yl)phthalazin-1(2H)-one], for which the IC50 on PRMT5/MEP50 complex [2] (setting [5]) was determined as 42000 nM; at PRMT5/MEP50 complex [2] (setting [4]) it was 10000 nM.
On to `NCc1n[nH]c(=O)c2cc(NCc3ccccc3)ccc12` [Example 6-4, 4-(aminomethyl)-7-(benzylamino)-2H-phthalazin-1-one], for which, at PRMT5/MEP50 complex [2] (setting [5]), the IC50 was 19000 nM.
As for `CCCn1cc(-c2ccc3c(=O)[nH]nc(CN)c3c2)cn1` [Example 3-23, 4-(aminomethyl)-6-(1-propyl-1H-pyrazol-4-yl)phthalazin-1(2H)-one], the figures for the IC50 on PRMT5/MEP50 complex [2] (setting [5]) and on PRMT5/MEP50 complex [2] (setting [4]) were 230 nM and 6430 nM, respectively.
The like results for `CCCNc1ccc2c(CN)n[nH]c(=O)c2c1` [Example 6-2] were, in that order, > 100000 nM and > 100000 nM.
